US9562083B2, “Peptides and methods for inducing cell death” (Los Angeles Biomedical Research Institute at Harbor-UCLA …, priority 2010, dated 2017)

Key:
[1] = tested on: Escherichia coli ML-35; test: Modified radial diffusion assay (zones of growth inhibition); assay type: cell-based; settings: pH 5.5 versus pH 7.5
Experimental: (§1) An agar radial diffusion assay has been used as described herein to determine antimicrobial activities of proteins against microbial pathogens in vitro. One million CFU will be mixed into 10 ml (i.e., 1×10^5 CFU/ml) of melted 1% agarose (in 10 mM NaHPO4 and cooled to 42° C.) containing minimal nutrient and adjusted to either pH 5.5 or pH 7.2. The agar is solidified in culture dishes, and sample wells are formed. Peptides at various concentrations are dissolved in 10 μl of 0.01% acetic acid buffer (pH 5.5 or 7.2), loaded into individual wells, and incubated at 37° C. for three hours. The plate is then overlayed with 1% agarose containing nutrients and incubated (37° C., for at least 24 hours). Peptides purified by RP-HPLC lacking antimicrobial activity are tested in parallel as controls. Zones of inhibition are measured to quantify antimicrobial activity. This assay will not distinguish between microbicidal and microbiostatic actions, but is highly sensitive to peptides with one or both functions.
(§2) The following assay is designed to measure the relative antimicrobial activity of peptides by determining zones of growth inhibition.
(§3) The top eleven prioritized target sequences identified in Example I (see Table 21) were synthesized by solid-phase chain extension synthesis using conventional techniques. Each synthetic peptide was purified by RP-HPLC, and authenticated for purity and correct sequence by mass spectroscopy. Stock concentrations of the synthetic peptides were prepared at 1 mg/mL in 0.01% acetic acid and adjusted to pH 7.2. Synthetic peptides were assessed for antimicrobial efficacy, spectra, and conditional optima (pH 5.5 or 7.5) using the following modified radial diffusion assay, as detailed in Yount and Yeaman, PNAS […] (2004).
(§4) Molecular grade agarose (1.0%) in 10 mM NaH2PO4H2O was prepared, pH adjusted to 7.5 or 5.5, and autoclaved for 15 minutes at 121° C., then held in a waterbath set at 48° C. until used. Mueller Hinton II overlay agarose was prepared by adding molecular grade agarose to Mueller Hinton II Broth at a final concentration of 1.0%, pH adjusted to 7.5 or 5.5, autoclaved for 10 minutes at 121° C., and then held at 48° C. until used.
(§5) Trypticase Soy Broth (TSB) (10 mL) we inoculated with an overnight growth of the test organism and incubated three to six hours until the organism reached log phase. The cells were collected by centrifugation, washed in PBS, then 0.01% acetic acid adjusted to pH 7.2. The pellet was resuspended in TSB and standardized to a 0.5 McFarland turbidity standard. A 10 μl aliquot of the inoculum is added to 10 mL of the pH-adjusted 1.0% molecular grade agarose cooled to 48° C. resulting in a final inoculum concentration of 5×10^5 CFU/mL. The suspension is poured into a 15×100 mm Petri dish and allowed to solidify.
(§6) After solidification had occurred, five 4 mm diameter wells were bored into the agarose. The central well was used as the acetic acid control while 10 μl of peptide stock solution was added to each of the other wells resulting in a final concentration of 10 μg peptide/well. The plates were incubated upright for three hours at 37° C., then overlaid with 10 mL of Mueller Hinton II agarose. After the overlay solidified, the plates were inverted and incubated overnight at 37° C.
(§7) The synthetic peptides identified in Table 22 were assayed for antimicrobial activity against known pathogenic microorganisms. These pathogenic microorganisms included five species of bacteria (Staphylococcus aureus, Escherichia coli, Salmonella typhimurium, Pseudomonas aeruginosa and Bacillus subtilis) and one species of fungi (Candida albicans) (see Table 23). Zones of growth inhibition were measured and were grouped as complete and/or partial growth zones for the assayed microorganism. Zones were considered complete clearance when there was no visible growth (i.e. completely clear or free of growth). […]

[2] = tested on: Pseudomonas aeruginosa 01; test: as above; assay type: cell-based; settings: pH 5.5 versus pH 7.5
Experimental: as §1, §2, §3, §4, §5, §6, §7

[3] = tested on: Salmonella typhimurium 14028; test: as above; assay type: cell-based; settings: pH 5.5 versus pH 7.5
Experimental: as §1, §2, §3, §4, §5, §6, §7

[4] = tested on: Bacillus subtilis ATCC 6633; test: as above; assay type: cell-based; settings: pH 5.5 versus pH 7.5
Experimental: as §1, §2, §3, §4, §5, §6, §7

[5] = tested on: Acinetobacter baumannii isolates; test: Radial diffusion assay, Example III; assay type: cell-based; settings: pH 5.5 vs. pH 7.5
Experimental: as §3, §4, §5, §6
(§8) The synthetic peptides identified in Table 22 were assayed for antimicrobial activity against known pathogenic microorganisms. These pathogenic microorganisms included five species of bacteria (Staphylococcus aureus, Escherichia coli, Salmonella typhimurium, Pseudomonas aeruginosa and Bacillus subtilis) and one species of fungi (Candida albicans) (see Table 23). Zones of growth inhibition were measured and were grouped as complete and/or partial growth zones for the assayed microorganism. Zones were considered complete clearance when there was no visible growth (i.e. completely clear or free of growth). Zones were considered partial clearance when growth was impeded or partially cleared (i.e. reduction in microbial density as compared to adjacent confluent growth). The larger the zone size, the greater the antimicrobial activity of the test peptide. The lack of a zone is an indication of no antimicrobial activity of the test peptide against the target organism under the conditions tested.
(§9) Further to the methods disclosed in Example II, utilizing the same antimicrobial assay above, the antimicrobial activity of peptides Hol-III-4 (SEQ ID NO: 268) and Ncl-VIII-6 (SEQ ID NO: 152 was determined by identifying zones of growth inhibition.
(§10) Hol-III-4 and Ncl-VIII-6 peptides were assayed for antimicrobial activity against a panel of drug-resistant Gram-negative bacterial pathogens, specifically Pseudomonas aeruginosa, and various Acinetobacter spp. strains. […] The RP-1 peptide is well known in the art to have antimicrobial activity, as illustrated in Yeaman et al., Antimicrobial Agents and Chemotherapy, 46(12):3883-3891 (2002). The 6W-RP-1 peptide is a 6-Trp variant of RP-1, which also has antimicrobial activity, as illustrated in Kilelee et al, Antimicrobial Agents and Chemotherapy 54(10):4476-4479 (2010).

[6] = tested on: Acinetobacter spp. strains (drug-resistant); test: Radial diffusion assay, Example III; assay type: cell-based; settings: pH 5.5 and pH 7.5; all strains tested
Experimental: as §3, §4, §5, §6, §8, §9, §10

[7] = tested on: Pseudomonas aeruginosa strains (drug-resistant); test: Radial diffusion assay, Example III; assay type: cell-based; settings: pH 5.5 and pH 7.5; all strains tested
Experimental: as §3, §4, §5, §6, §8, §9, §10

[8] = known in the art; cited from earlier work

In the case of “H2N-IRLVSKYGKSKGIAYI-CONH2 (H-IRLVSKYGKSKGIAYI-NH2) [Ncl-VIII-6, designed from Nucleolin]”, the “effect of acidic pH on antimicrobial activity” value (shortened to “effect of acidic pH”) [1] is reported as “did not appear to affect the activity”, the “effect of acidic pH” value [2] is reported as “did not appear to affect the activity” and the “effect of acidic pH” value [3] is reported as “did not appear to affect the activity”. For the same substance, the “effect of acidic pH” value [4] was “did not appear to affect the activity”, the “pH dependence of antimicrobial activity” value [5] was “pH dependent” and the “antimicrobial activity (zone of inhibition)” value [6] was “significant antimicrobial activity”. The “antimicrobial activity (zone of inhibition)” value [7] was “significant antimicrobial activity”.
In the case of “H2N-SIGSLIKRFAYKKAGV-CONH2 (H-SIGSLIKRFAYKKAGV-NH2) [Hol-III-4, designed from Holin protein]”, the “effect of acidic pH” value [1] is reported as “did not appear to affect the activity”, the “effect of acidic pH” value [2] is reported as “did not appear to affect the activity” and the “effect of acidic pH” value [3] is reported as “did not appear to affect the activity”. The “effect of acidic pH” value [4] was “did not appear to affect the activity”, the “pH dependence of antimicrobial activity” value [5] was “pH dependent” and the “antimicrobial activity (zone of inhibition)” value [6] was “significant antimicrobial activity”. For the same substance, the “antimicrobial activity (zone of inhibition)” value [7] was “significant antimicrobial activity”.
With H-ALFYFASKLYLKALYTKV-NH2 [BaxP-I-18] the “effect of acidic pH” value [1] was “did not appear to affect the activity”, the “effect of acidic pH” value [2] was “did not appear to affect the activity” and the “effect of acidic pH” value [3] was “did not appear to affect the activity”. For the same substance, the “effect of acidic pH” value [4] was “did not appear to affect the activity”.
For “N-AALYKKKIIKKLLES-C [PMP-2, C-terminal helix of the consensus molecule cPMP]”, the antimicrobial activity [8] is given as “known to have antimicrobial activity”.
